{"source": "patent US12268727B2", "about": "“Bioactive polypeptides for improvements in plant protection, growth and productivity” (priority 2017, dated 2025)", "key": {"[1]": {"test_system": "reactive oxygen species (ROS) production in corn tissue", "experiment": "ROS activity assay in corn tissue (luminol/horseradish peroxidase, RLU)"}, "[2]": {"test_system": "reactive oxygen species (ROS) production in soybean leaf tissue", "experiment": "ROS activity assay in soybean leaf tissue (luminol/horseradish peroxidase, RLU)", "type": "cell-based", "conditions": "for Description of ROS activity results (soybean): mutant versus native Bt.4Q7Flg22, observed"}, "[3]": {"test_system": "corn", "experiment": "Foliar application to corn in growth room, plant height (non-stress, heat and water deficit stress)", "conditions": "for growth phenotype vs control: foliar (HpaG-like 1 μM, PSKα)"}, "[4]": {"test_system": "reactive oxygen species (ROS) production in tomato leaf tissue", "experiment": "ROS activity assay in tomato leaf tissue", "type": "cell-based", "description": "Tomato leaves were excised from 4-week-old plants using a cork borer to generate 4 mm disks. Each disc was cut in half using the edge of a razor blade, and then each disc half was floated on 150 μL of water in a 96-well plate to rest overnight. The next day, the water was removed from each well just prior to polypeptide treatment. The Flg polypeptides as described in Table 66 were added to water to bring them to a final concentration of 5 nM (Table 67) and 100 nM (Table 68) in solution with luminol and HRP before adding to each treatment well. To maintain activity, the polypeptides were stored in small aliquots to avoid multiple freezing and thawing. All dilutions to obtain working concentrations were done in ultrapure water. Polypeptide solutions were stored at −20° C. for short term usage or −80° C. for long term storage. RLU values and relative ROS activity (Tables 67, 68) is reported as the average of 4 measurements."}, "[5]": {"test_system": "corn", "experiment": "Seed treatment of corn, field yield trials", "type": "in vivo", "conditions": "second study, 12 locations"}, "[6]": {"test_system": "soybean", "experiment": "Seed treatment of soybean, field yield trials", "type": "in vivo"}, "[7]": {"test_system": "corn", "type": "in vivo", "conditions": "foliar 0.33 Fl. oz/Ac, V5-V8, first year trials, 10 locations"}, "[8]": {"test_system": "soybean", "experiment": "Foliar application to soybean, field yield trials", "type": "in vivo", "conditions": "11 locations"}, "[9]": {"conditions": "Table 33, RLU relative to native Bt.4Q7Flg22 = 100"}, "[10]": {"conditions": "Table 35, single polypeptides and combinations, Bt.4Q7Flg22 = 100"}}, "note": "Non-standard residues stand in square brackets, D forms with d. No end group written: not given here."}
{"substance": "LRISSGYRINSAADDPAGLAIS (Lysinibacillus spp.) [SEQ ID NO: 582]", "values": [{"measurement": "Avg. Activity (%) Corn (5828 YX) 5 nM polypeptide", "setting": "[1]; [9]", "result": 60.1, "unit": "%"}, {"measurement": "Avg. Activity (%) Soybean (297 R4) 100 nM polypeptide", "setting": "[2]; [9]", "result": 117.9, "unit": "%"}]}
{"substance": "Bt 4Q7Flg 22 (DRLSSGKRINSASDDAAGLAIA; listed as Bacillus thuringiensis)", "values": [{"measurement": "Δ Height (cm)", "setting": "[3]; corn Beck's 5828 YH, 1 μM foliar, 3 to 5 weeks", "result": 5.40, "unit": "cm"}, {"measurement": "Δ Height Normalized as a percentage of control height", "setting": "[3]; corn Beck's 5828 YH, 1 μM foliar, vs water control", "result": "+3.7%"}]}
{"substance": "NQGISEKQLDQLLTQLIMALLQQ (Xanthomonas species) [HpaG-like]", "values": [{"measurement": "growth phenotype vs control", "setting": "[3]; heat and water deficit stress", "result": "not stressed environments"}, {"measurement": "growth phenotype vs control", "setting": "[3]; non-stressed environment", "result": "improved growth phenotype in normal environments"}]}
{"substance": "Bp.Flg22 (TRLSSGKRINSAADDAAGLAIS)", "values": [{"measurement": "Avg. Activity (%) Corn (5828 YX) 5 nM polypeptide", "setting": "[1]; [9]", "result": 111.2, "unit": "%"}, {"measurement": "Avg. Activity (%) Soybean (297 R4) 100 nM polypeptide", "setting": "[2]; [9]", "result": 67.2, "unit": "%"}]}
{"substance": "ESTNILQRMRELAVQSRNDSNSATDREA (listed as Pseudomonas syringae) [Ps.tomato FlgII-28, FlgII-28 from Pseudomonas syringae pv. tomato DC3000]", "values": [{"measurement": "RLU relative to Bt.4Q7Flg22 at the same concentration", "setting": "[4]; 5 nM", "result": "~31", "unit": "×"}, {"measurement": "ROS response", "setting": "[4]; 5 nM", "result": "strong ROS response"}, {"measurement": "ROS response", "setting": "[4]; 100 nM", "result": "strong ROS response"}]}
{"substance": "RI Bt.4Q7Flg22: retro-inverso form of Bt.4Q7Flg22 ([dA][dI][dA][dL]G[dA][dA][dD][dD][dS][dA][dS][dN][dI][dR][dK]G[dS][dS][dL][dR][dD]; listed as Bacillus thuringiensis)", "values": [{"measurement": "yield advantage", "setting": "[5]", "result": 0.5, "unit": "Bu/Ac"}, {"measurement": "win rate", "setting": "[6]; third study, 12 locations", "result": 55, "unit": "%"}, {"measurement": "yield benefit", "setting": "[6]; third study, 12 locations", "result": 0.3, "unit": "Bu/Ac"}, {"measurement": "average yield increase vs non-treated control", "setting": "[7]", "result": 11.90, "unit": "Bu/Ac"}, {"measurement": "win rate", "setting": "[7]", "result": 70, "unit": "%"}, {"measurement": "win rate", "setting": "[8]; R2 foliar 0.33 Fl. oz/Ac", "result": 64, "unit": "%"}, {"measurement": "average yield change vs non-treated control", "setting": "[8]; R2 foliar, Flg22 polypeptides 0.33 Fl. oz/Ac, RHPP 4 Fl. oz/Ac", "result": 0.90, "unit": "Bu/Ac"}]}
{"substance": "NRLSSGKRINTAADDAAGLAIS (listed as Burkholderia ubonensis) [SEQ ID NO: 538]", "values": [{"measurement": "Avg. Activity (%) Corn (5828 YX) 5 nM polypeptide", "setting": "[1]; [9]", "result": 92.9, "unit": "%"}, {"measurement": "Avg. Activity (%) Soybean (297 R4) 100 nM polypeptide", "setting": "[2]; [9]", "result": 91.1, "unit": "%"}]}
{"substance": "DRLSSGKRINSASDDPAGLAIA [Syn05Flg22]", "values": [{"measurement": "% Activity (compared to unmodified Syn05Flg22 (SEQ ID NO: 578))", "setting": "[1]; corn leaf slices", "result": 100.0, "unit": "%"}, {"measurement": "Polypeptide Concentration (nM) for 5 × 10^4 total RLU production", "setting": "[1]; corn leaf slices, from best-fit regression", "result": 19.5, "unit": "nM"}, {"measurement": "% Activity (compared to Syn0Flg22; SEQ ID NO: 578)", "setting": "[2]; soybean leaf discs, Table 73 data set", "result": 100.0, "unit": "%"}, {"measurement": "Polypeptide Concentration (nM) for 5 × 10^4 total RLU production", "setting": "[2]; soybean leaf discs, from best-fit regression, Table 73 data set", "result": 89.8, "unit": "nM"}]}
{"substance": "DRLSSGKRINSASDDAAGLQIA (listed as Bacillus thuringiensis) [SEQ ID NO: 572]", "values": [{"measurement": "Description of ROS activity results (corn)", "setting": "[1]; mutant versus native Bt.4Q7Flg22, observed", "result": "A20Q mutation: Negative ROS activation"}, {"measurement": "Description of ROS activity results (soybean)", "setting": "[2]", "result": "A20Q mutation: Negative ROS activation"}]}
{"substance": "QRLSSGKRINSASDDAAGLAIA (listed as Bacillus thuringiensis) [Bt.4Q7Flg22-Syn03, Modified FLG22-Bt4Q7 (D1Q)]", "values": [{"measurement": "ROS activity compared to native Bt.4Q7Flg22", "setting": "[1]; 0.25-100 nM, tissue not given", "result": "increased ROS activities"}, {"measurement": "ROS-inducing activity among tested polypeptides", "setting": "[1]; corn (5 nM) and soybean (100 nM)", "result": "strongest ROS-inducing activity"}, {"measurement": "Description of ROS activity results (soybean)", "setting": "[2]", "result": "D1Q mutation: Strong ROS activation in"}]}
{"substance": "LRISTGYRINSAADDPAGLAIS (listed as Lysinibacillus fusiformis) [SEQ ID NO: 583]", "values": [{"measurement": "Avg. Activity (%) Corn (5828 YX) 5 nM polypeptide", "setting": "[1]; [9]", "result": 59.3, "unit": "%"}, {"measurement": "Avg. Activity (%) Soybean (297 R4) 100 nM polypeptide", "setting": "[2]; [9]", "result": 111.6, "unit": "%"}]}
{"substance": "P spp.Flg22-B6 (GKLSSGLRINGASDDAAGLAIS)", "values": [{"measurement": "Avg. Activity (%) Corn (5828 YX) 5 nM polypeptide", "setting": "[1]; [9]", "result": 135.3, "unit": "%"}, {"measurement": "Avg. Activity (%) Corn (5828 YX) 5 nM polypeptide", "setting": "[1]; [10]", "result": 103.61, "unit": "%"}, {"measurement": "Avg. Activity (%) Soybean (297 R4) 100 nM polypeptide", "setting": "[2]; [9]", "result": 112.5, "unit": "%"}, {"measurement": "Avg. Activity (%) Soybean (297 R4) 100 nM polypeptide", "setting": "[2]; [10]", "result": 132.95, "unit": "%"}]}
{"substance": "Syn03Flg22 (QRLSSGKRINSASDDAAGLAIA)", "values": [{"measurement": "Average Change in Bu/Ac compared to Untreated Control", "setting": "[6]; seed treatment on base ST, polypeptide 1.0 μM (cellobiose 1 mM where combined)", "result": "+2.50 Bu/Ac"}]}
